Data on twelve compounds can be found in patent US5618726A, “Biodegradable azo dyes” (priority 1994, dated 1997).

SMILES strings stand for the structures.

The target of data set [1] is T1, horseradish peroxidase type II (Armoracia rusticana, UniProt P00433).
T1 sequence (P00433 31-338): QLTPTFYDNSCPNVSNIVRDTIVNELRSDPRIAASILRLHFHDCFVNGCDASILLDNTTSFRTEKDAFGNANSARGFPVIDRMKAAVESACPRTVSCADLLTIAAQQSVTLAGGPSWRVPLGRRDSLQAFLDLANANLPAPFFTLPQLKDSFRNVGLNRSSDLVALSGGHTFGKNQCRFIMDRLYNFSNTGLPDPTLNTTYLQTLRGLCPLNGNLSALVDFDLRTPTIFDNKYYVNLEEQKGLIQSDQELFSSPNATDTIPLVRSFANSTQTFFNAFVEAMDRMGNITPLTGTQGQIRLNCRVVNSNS
Put plainly: Oxidation of azo dyes by horseradish peroxidase preparation. The format is biochemical. Conditions: pH 8, 37° C., H2O2. How it is done: The reaction was started with the addition of 100 μl of 50 mM H2 O2 and was followed for 1 min at 37° C. Controls were run with no addition of H2 O2 or with the addition of the hemeperoxidase inhibitor KCN (final concentration 25 μM).

The subject of data set [2] is S. chromofuscus A11 extracellular peroxidase. The experiment in a line: Oxidation of azo dyes by S. chromofuscus A11 crude enzyme preparation. To be noted: pH 8, 37° C., H2O2. Type of data set: biochemical, Streptomyces chromofuscus A11. How it is done:
Environ. Microbiol., 1988, 54:3057-3063. […] Microbiol. Biotechnol., 34:661-667. Incubation took place at 37° C. with shaking at 250 rpm. The culture supernatant was collected after 48 h incubation, and vacuum-filtered through Whatman no. 1 filter paper. The filtrate was concentrated approximately 40- to 50-fold by ultrafiltration through an Amicon ultrafiltration stirred cell (series no. 8000, Amicon Corp.) with a disc PM-10 filter (diameter, 76 mm). Protein in the concentrated filtrate was then precipitated from solution with 80% ammonium sulfate. The precipitate was collected by centrifugation (15 min, 10,000 rpm). The pellet was resuspended in 10 ml of 20 mM HEPES buffer (pH 8) and dialyzed overnight against the same buffer at 4° C. These preparations were then stored in 1-ml aliquots at -20° C. until used. Before using, the preparation was filtered through a NAP-25 Sephadex G-25 disposable column (Pharmacia) in order to separate a yellowish protein fraction from a pink low-molecular-weight fraction. The yellowish fraction was used as the source of enzyme. […] The reaction was started with the addition of 100 μl of 50 mM H2 O2 and was followed for 1 min at 37° C. Controls were run with no addition of H2 O2 or with the addition of the hemeperoxidase inhibitor KCN (final concentration 25 μM).

The test system of data set [3] is Mn(II)-peroxidase. Put plainly: Oxidation of dyes by P. chrysosporium Mn(II)-peroxidase. The format is biochemical, Phanerochaete chrysosporium. To be noted: crude enzyme, conditions specific for Mn(II)-peroxidase. How it is done: (§1) The peroxidase assay was carried out using a composition having a final volume of 1.0 ml. The reaction mixture contained 250 μl of 100 mM HEPES buffer (pH 8), 500 μl of 10 mM 2,4-dichlorophenol, 100 μl of 1 mM aminoantipyrine, 50 μl enzyme preparation and 100 μl 50 mM H2 O2. The reaction was initiated by the addition of hydrogen peroxide at 37° C. One unit of peroxidase activity was expressed as the amount of enzyme required for an increase of one absorbance-unit-per-minute at 510 nm. Assays of manganese peroxidase and of ligninase from P. chrysosporium were carried out as previously described by Paszczynski et al in "Manganese peroxidase of Phanerochaete chrysosporium: Purification," Methods Enzymol. 161:264-270, incorporated herein by reference. […] Biophys., 1986, 44:750-765. Preparation and assay of ligninase and manganese peroxidase from these P. chrysosporium cultures were carried out as previously reported by Paszczynski, et al., Methods Enzymol., 1988, 161:264-270. […] Purification," Methods Enzymol. 161:264-270. […] Cycle time was 10 seconds, with the last measure after three minutes of incubation.

Data set [4] deals with ligninase. The experiment in a line: Oxidation of dyes by P. chrysosporium ligninase (crude preparation). Type of data set: biochemical, Phanerochaete chrysosporium. To be noted: crude enzyme, conditions specific for ligninase. How it is done:
as §1, with “30 seconds” for “10 seconds,”, “15 minutes. […] The reaction conditions were the same as for acid yellow 9. No decolorization” for “three minutes”, “the synthesized dyes by ligninase was detected.” for “incubation.”

Data set [5] deals with Phanerochaete chrysosporium. The experiment in a line: Substrate removal / decolorization by P. chrysosporium culture. The format is cell-based. Conditions: for % Decolorization, P. chrysosporium: 14 days. On the procedure: Environ. Microbiol., 1981, 42:290-296), with the addition of 75 mg adenine (6-aminopurine) and 27 mg L-phenylalanine-per-liter. This addition accelerated the growth of the fungus without inhibiting ligninase activity. […] […] Cultures were incubated at 37° C. for 7 to 15 days with shaking (250 rpm). Solid agar media were also employed.

Data set [6] deals with P. chrysosporium ligninolytic culture. The format is cell-based, Phanerochaete chrysosporium. To be noted: initial 200 mg-per-liter, ten days of growth. On the procedure: Decolorization of dyes in cultures were monitored at their absorption maxima at pH 4.5, or using HPLC. A Spherisorb ODS2 C18 column was used for HPLC analysis with a sequence of DMS buffer at pH 4.5 and acetonitrile as solvents (5 min 100% DMS, 15 min 100% acetonitrile, 18 min 100% acetonitrile, 19 min 100% DMS, 20 min 100% DMS, 5 min postran 100% DMS). Peaks were monitored at 260 and 450 nm. Results from spectrophotometric and HPLC methods were compared.
The initial concentration of dye was 200 mg-per-liter. Numbers represent mg-per-liter of dye remaining in the cultures.

Setting [7] is: beginning concentration 100 ppm.
Setting [8] is: beginning concentration 150 ppm.
[9] abbreviates: beginning concentration 200 ppm.
Setting [10] is: beginning concentration 300 ppm.

For the compound `COc1ccc(N=Nc2ccc(S(=O)(=O)O)cc2)cc1OC` [compound 17], the “Oxidation rate of azo dyes, Horseradish peroxidase” value in data set [1] was 0.32 μmoles per minute per ml. Moreover, the “Oxidation rate of azo dyes, S. chromofuscus peroxidase” value in data set [2] was 0.50 μmoles per minute per ml. Moreover, the “Oxidation rate of azo dyes, P. chrysosporium Mn-peroxidase” value in data set [3] was 0.72 μmoles per minute per ml. Moreover, the “Oxidation rate of azo dyes, P. chrysosporium Ligninase” value in data set [4] was 1.03 μmoles per minute per ml. For the same compound, the “Concentration of substrate after ten days cultivation with P. chrysosporium” value (“Concentration … with P. chrysosporium” below) in data set [5] (setting [7]) was found to be 29.803 ppm; in data set [5] (setting [8]), 58.942 ppm; in data set [5] (setting [9]), 93.250 ppm; in data set [5] (setting [10]), 136.057 ppm. In addition, the figures for the “% Decolorization, P. chrysosporium” value in data set [5] (initial concn 150 ppm) and in data set [5] (initial concn 300 ppm) were 79% and 74%, respectively.
Turning to `Nc1ccc(N=Nc2ccc(S(=O)(=O)O)cc2)cc1S(=O)(=O)O` [compound 18], the “Oxidation rate of azo dyes, Horseradish peroxidase” value in data set [1] is given as 0.12 μmoles per minute per ml. In addition, the “Oxidation rate of azo dyes, S. chromofuscus peroxidase” value in data set [2] came out at 0.15 μmoles per minute per ml. The “Oxidation rate of azo dyes, P. chrysosporium Mn-peroxidase” value in data set [3] is 0.09 μmoles per minute per ml. Besides, the “Oxidation rate of azo dyes, P. chrysosporium Ligninase” value in data set [4] is on record as 1.38 μmoles per minute per ml. Besides, the “Concentration … with P. chrysosporium” value in data set [5] (setting [7]) came out at 8.387 ppm; in data set [5] (setting [8]), 20.342 ppm; in data set [5] (setting [9]), 40.875 ppm; in data set [5] (setting [10]), 77.099 ppm.
Consider `O=S(=O)(O)c1ccc2c(N=Nc3ccccc3)c(O)ccc2c1` [compound 19], for which, in data set [1], the “Oxidation rate of azo dyes, Horseradish peroxidase” value is given as 0.08 μmoles per minute per ml. Moreover, the “Oxidation rate of azo dyes, S. chromofuscus peroxidase” value in data set [2] turned out to be 0.35 μmoles per minute per ml. In addition, the “Oxidation rate of azo dyes, P. chrysosporium Mn-peroxidase” value in data set [3] is on record as 0.10 μmoles per minute per ml. The “Oxidation rate of azo dyes, P. chrysosporium Ligninase” value in data set [4] worked out at 2.06 μmoles per minute per ml. The “Concentration … with P. chrysosporium” value in data set [5] (setting [8]) worked out at 2.938 ppm; in data set [5] (setting [10]) it was 252.592 ppm. Further, the “% Decolorization, P. chrysosporium” value was found to be 93% in data set [5] (initial concn 150 ppm) and 87% in data set [5] (initial concn 300 ppm).
For the compound `Nc1c(N=Nc2ccc(-c3ccc(N=Nc4cc(S(=O)(=O)O)c5ccccc5c4N)cc3)cc2)cc(S(=O)(=O)O)c2ccccc12` [compound 20], in data set [6], the “Dye remaining in the cultures, HPLC” value is on record as 62.20 mg-per-liter and the “Dye remaining in the cultures, Spectrophotometry” value (“Dye remaining … Spectrophotometry” for short) stood at 52.01 mg-per-liter.
As for `Cc1ccc(S(=O)(=O)Oc2ccc(N=Nc3ccc(-c4ccc(N=Nc5c(O)ccc6cc(S(=O)(=O)O)cc(S(=O)(=O)O)c56)c(C)c4)cc3C)cc2)cc1` [compound 21], in data set [6], the “Dye remaining in the cultures, HPLC” value is 103.62 mg-per-liter and the “Dye remaining … Spectrophotometry” value came to 102.38 mg-per-liter.
`COc1cc(-c2ccc(N=Nc3c(S(=O)(=O)O)cc4cc(S(=O)(=O)O)cc(N)c4c3O)c(OC)c2)ccc1N=Nc1c(S(=O)(=O)O)cc2cc(S(=O)(=O)O)cc(N)c2c1O` [compound 22]: in data set [6], the “Dye remaining in the cultures, HPLC” value worked out at 12.28 mg-per-liter and the “Dye remaining … Spectrophotometry” value is recorded as 7.64 mg-per-liter.
As for `O=S(=O)(O)c1ccc(N=Nc2c(O)ccc3ccccc23)c2ccccc12` [compound 23], in data set [6], the “Dye remaining in the cultures, HPLC” value came out at 72.43 mg-per-liter and the “Dye remaining … Spectrophotometry” value worked out at 89.27 mg-per-liter.
For `Nc1ccc2c(O)c(N=Nc3ccc(N=Nc4ccc(N=Nc5cc(S(=O)(=O)O)c6cccc(S(=O)(=O)O)c6c5)c5ccccc45)c4ccc(S(=O)(=O)O)cc34)c(S(=O)(=O)O)cc2c1` [compound 25] the same measures were 14.86 mg-per-liter and 9.66 mg-per-liter.
In the case of `Nc1ccc2cc(S(=O)(=O)O)cc(O)c2c1N=Nc1ccc(NC(=O)Nc2ccc(N=Nc3c(N)ccc4cc(S(=O)(=O)O)cc(O)c34)c(S(=O)(=O)O)c2)cc1S(=O)(=O)O` [compound 26], in data set [6], the “Dye remaining in the cultures, HPLC” value was 6.98 mg-per-liter and the “Dye remaining … Spectrophotometry” value is given as 4.33 mg-per-liter.
`CCOc1ccc(N=Nc2ccc(C=Cc3ccc(N=Nc4ccc(OCC)cc4)cc3S(=O)(=O)O)c(S(=O)(=O)O)c2)cc1` [compound 27]: in data set [6], the “Dye remaining in the cultures, HPLC” value was 29.42 mg-per-liter and the “Dye remaining … Spectrophotometry” value is on record as 28.33 mg-per-liter.
`COc1ccccc1NC(=O)C(N=Nc1ccc(-c2nc3ccc(C)c(S(=O)(=O)O)c3s2)cc1S(=O)(=O)O)=C(C)O` [compound 29]: in data set [6], the “Dye remaining in the cultures, HPLC” value is given as 109.39 mg-per-liter and the “Dye remaining … Spectrophotometry” value amounted to 108.92 mg-per-liter.
`Nc1ccc(N=Nc2ccc(S(=O)(=O)O)cc2)cc1` [compound 30]: the “Oxidation rate of azo dyes, Horseradish peroxidase” value in data set [1] is 0.40 μmoles per minute per ml. In addition, the “Oxidation rate of azo dyes, S. chromofuscus peroxidase” value in data set [2] is 0.00 μmoles per minute per ml. For the same compound, the “Oxidation rate of azo dyes, P. chrysosporium Mn-peroxidase” value in data set [3] is 0.59 μmoles per minute per ml. Further, in data set [4], the “Oxidation rate of azo dyes, P. chrysosporium Ligninase” value amounted to 1.58 μmoles per minute per ml. Also, the “% Decolorization, P. chrysosporium” value worked out at 85% in data set [5] (initial concn 150 ppm) and 80% in data set [5] (initial concn 300 ppm).
